According to ChEMBL document CHEMBL4177532, “Antibacterial Nerol Cinnamates from the Australian Plant Eremophila longifolia” (J Nat Prod, 2017):
Values after ≈ are worked out from the molar mass of the structure shown.

How the values were obtained:
[1] = tested on: HepG2; test: Cytotoxicity against human HepG2 cells assessed as reduction in cell viability incubated for 24 hrs by resazurin based assay; type: functional; conditions: HepG2, 24 h
[2] = tested on: Acinetobacter baumannii; test: Antimicrobial activity against Acinetobacter baumannii ATCC 19606 by microdilution plate based method; type: functional; conditions: ATCC 19606 = CIP 70.34 = JCM 6841
[3] = tested on: Enterococcus faecium; test: Antimicrobial activity against vancomycin-resistant and VanA expressing Enterococcus faecium ATCC 51559 by microdilution plate based method; type: functional
[4] = Cytotoxicity against HEK293 cells assessed as reduction in cell viability incubated for 24 hrs by resazurin based assay; conditions: human
[5] = tested on: Staphylococcus aureus; test: Antimicrobial activity against vancomycin-resistant Staphylococcus aureus NARSA VRS 1 by microdilution plate based method; type: functional
[6] = tested on: Escherichia coli; test: Antimicrobial activity against Escherichia coli ATCC 25922 by microdilution plate based method; type: functional
[7] = tested on: Candida albicans; test: Antimicrobial activity against Candida albicans ATCC 90028 by microdilution plate based method; type: functional
[8] = tested on: Cryptococcus neoformans; test: Antimicrobial activity against Cryptococcus neoformans ATCC 208821 by microdilution plate based method; type: functional
[9] = tested on: Streptococcus pneumoniae; test: Antimicrobial activity against multidrug resistant Streptococcus pneumoniae ATCC 700677 by microdilution plate based method; type: functional
[10] = tested on: Staphylococcus aureus; test: microbe, parasite or virus in culture; type: functional; conditions: ATCC 43300
Description: Antimicrobial activity against methicillin-sensitive Staphylococcus aureus ATCC 43300 by microdilution plate based method

[11] = tested on: Staphylococcus aureus; test: Antimicrobial activity against glycopeptide intermediate resistant Staphylococcus aureus NARSA NRS 17 by microdilution plate based method; type: functional
[12] = Drug metabolism assessed as compound auto-oxidation; type: physicochemical
[13] = tested on: Escherichia coli; test: Antimicrobial activity against Escherichia coli; type: functional
[14] = tested on: Staphylococcus aureus; test: Antimicrobial activity against Staphylococcus aureus; type: functional
[15] = tested on: MRC5; test: Cytotoxicity against human MRC5 cells; type: cell-based
[16] = tested on: Trypanosoma brucei brucei; test: Antitrypanosomal activity against Trypanosoma brucei brucei GUTat 3.1 incubated for 72 hrs by alamar blue dye based assay; type: functional, organism-based; conditions: GUTat 3.1, 72 h

`COc1cc(/C=C/C(=O)OC/C=C(/C)CCC=C(C)C)ccc1O` showed a CC50 [1] of 300 µM, an MIC [2] greater than 64 µg/mL and an MIC [3] of 8 µg/mL (≈ 24.2 µM). For the same compound, the CC50 at 24 h [4] was 273 µM, the MIC [5] was 16 to 32 µg/mL (≈ 48.4 to 96.8 µM) and the MIC [6] was greater than 64 µg/mL. For the same compound, the MIC [7] was greater than 64 µg/mL, the MIC [8] was 32 to 64 µg/mL (≈ 96.8 to 194 µM) and the MIC [9] was 8 to 16 µg/mL (≈ 24.2 to 48.4 µM). For the same compound, the MIC [10] was 16 µg/mL (≈ 48.4 µM), the MIC [11] was 16 µg/mL (≈ 48.4 µM) and the Drug metabolism [12] was “Metabolite_Detected”.

`CC(C)=CCC/C(C)=C/COC(=O)/C=C/c1ccccc1` gave an MIC [13] of 5000 µg/mL (≈ 17600 µM) and an MIC [14] of 5000 µg/mL (≈ 17600 µM).

Work on `CC(C)=CCC/C(C)=C\COC(=O)/C=C/c1ccc(O)cc1` yielded a CC50 [1] of 157 µM, an MIC [2] greater than 64 µg/mL and an MIC [3] of 8 µg/mL (≈ 26.6 µM). It also gave a CC50 at 24 h [4] of 273 µM, an MIC [5] greater than 64 µg/mL and an MIC [6] greater than 64 µg/mL. For the same compound, the MIC [7] was greater than 64 µg/mL, the MIC [8] was 32 to 64 µg/mL (≈ 107 to 213 µM) and the MIC [9] was 64 µg/mL (≈ 213 µM). The MIC [10] was greater than 64 µg/mL, the MIC [11] was greater than 64 µg/mL and the Drug metabolism [12] was “Metabolite_Detected”.

For `CC[C@H](C)CCCCC(=O)N[C@@H](CCN)C(=O)N[C@H](C(=O)N[C@@H](CCN)C(=O)N[C@H]1CCNC(=O)[C@H]([C@@H](C)O)NC(=O)[C@H](CCN)NC(=O)[C@H](CCN)NC(=O)[C@H](CC(C)C)NC(=O)[C@@H](Cc2ccccc2)NC(=O)[C@H](CCN)NC1=O)[C@@H](C)O.O=S(=O)(O)O.O=S(=O)(O)O`, the MIC [2] was 0.3 µg/mL and the MIC [6] was 0.3 µg/mL.

For `CCCCCCCCCC(=O)N[C@@H](Cc1c[nH]c2ccccc12)C(=O)N[C@@H](CC(N)=O)C(=O)N[C@@H](CC(=O)O)C(=O)N[C@@H]1C(=O)NCC(=O)N[C@@H](CCCN)C(=O)N[C@@H](CC(=O)O)C(=O)N[C@H](C)C(=O)N[C@@H](CC(=O)O)C(=O)NCC(=O)N[C@H](CO)C(=O)N[C@@H]([C@H](C)CC(=O)O)C(=O)N[C@@H](CC(=O)c2ccccc2N)C(=O)O[C@@H]1C` [DAPTOMYCIN], the MIC [3] was 32 µg/mL (≈ 19.7 µM), the MIC [5] was 8 µg/mL (≈ 4.94 µM) and the MIC [9] was 8 µg/mL (≈ 4.94 µM). It also gave an MIC [10] of 4 µg/mL (≈ 2.47 µM) and an MIC [11] of 16 to 32 µg/mL (≈ 9.87 to 19.7 µM).

For `CC(C)=CCC/C(C)=C\CC/C(C)=C\COC(=O)/C=C/c1ccc(O)c(O)c1` [FARNESYL CAFFEATE], the IC50 [15] was 13.3 µg/mL (≈ 34.6 µM) and the IC50 [16] was 0.23 µg/mL (≈ 0.598 µM).

In the case of `OC(Cn1cncn1)(Cn1cncn1)c1ccc(F)cc1F` [FLUCONAZOLE], the MIC [7] is reported as 0.3 to 0.5 µg/mL (≈ 0.98 to 1.63 µM) and the MIC [8] is reported as 8 µg/mL (≈ 26.1 µM).

Work on `CN[C@H](CC(C)C)C(=O)N[C@H]1C(=O)N[C@@H](CC(N)=O)C(=O)N[C@H]2C(=O)N[C@H]3C(=O)N[C@H](C(=O)N[C@H](C(=O)O)c4cc(O)cc(O)c4-c4cc3ccc4O)[C@H](O)c3ccc(c(Cl)c3)Oc3cc2cc(c3O[C@@H]2O[C@H](CO)[C@@H](O)[C@H](O)[C@H]2O[C@H]2C[C@](C)(N)[C@H](O)[C@H](C)O2)Oc2ccc(cc2Cl)[C@H]1O.Cl` [VANCOMYCIN HYDROCHLORIDE] yielded an MIC [3] greater than 32 µg/mL, an MIC [5] greater than 32 µg/mL and an MIC [9] of 2 µg/mL. For the same compound, the MIC [11] was greater than 32 µg/mL.
